Test results: PubChem BioAssay (NCI)
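Method: 48-hour compound exposure of cells in 96-well plates, five concentrations, linear interpolation of endpoints. Definition used: TGI = concentration required for complete inhibition of growth.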

What was measured:
Assay in all cases: NCI-60 cell line screen, 48 h
UO-31 renal = test system: UO-31 renal
OVCAR-3 ovarian = test system: OVCAR-3 ovarian
MOLT-4 leukemia = test system: MOLT-4 leukemia
NCI-H23 lung = test system: NCI-H23 lung
HT29 colon = test system: HT29 colon
MDA-MB-435 = test system: MDA-MB-435
SK-MEL-2 melanoma = test system: SK-MEL-2 melanoma
SF-295 CNS = test system: SF-295 CNS
RPMI-8226 leukemia = test system: RPMI-8226 leukemia
PC-3 prostate = test system: PC-3 prostate
UACC-62 melanoma = test system: UACC-62 melanoma
MCF7 breast = test system: MCF7 breast
HCT-15 colon = test system: HCT-15 colon
RXF 393 renal = test system: RXF 393 renal
NCI-H226 lung = test system: NCI-H226 lung
HOP-92 NSCLC = test system: HOP-92 NSCLC
NCI-H460 lung = test system: NCI-H460 lung
ACHN renal = test system: ACHN renal
KM12 colon = test system: KM12 colon
NCI-H522 lung = test system: NCI-H522 lung

Compound | TGI (UO-31 renal) [µM] | TGI (OVCAR-3 ovarian) [µM] | TGI (MOLT-4 leukemia) [µM] | TGI (NCI-H23 lung) [µM] | TGI (HT29 colon) [µM] | TGI (MDA-MB-435) [µM] | TGI (SK-MEL-2 melanoma) [µM] | TGI (SF-295 CNS) [µM] | TGI (RPMI-8226 leukemia) [µM] | TGI (PC-3 prostate) [µM] | TGI (UACC-62 melanoma) [µM] | TGI (MCF7 breast) [µM] | TGI (HCT-15 colon) [µM] | TGI (RXF 393 renal) [µM] | TGI (NCI-H226 lung) [µM] | TGI (HOP-92 NSCLC) [µM] | TGI (NCI-H460 lung) [µM] | TGI (ACHN renal) [µM] | TGI (KM12 colon) [µM] | TGI (NCI-H522 lung) [µM]
O=C1c2c(Br)sc(Br)c2[C@@H](Cl)[C@H]1Cl | 40.4 | 30 | > 100 | 94 | > 100 | 43.8 | 37.7 | 40.7 | 54.6 | 38.9 | 34.6 | 53.5 | 71.3 | 30.7 | 36.4 | 42.5 | 40.9 | 37.4 | 65.4 | 10.9
O=C(CC(O)(C(F)(F)F)C(F)(F)Cl)CC(O)(C(F)(F)F)C(F)(F)Cl (stereo not given) | > 10 | 9.14 | > 10 | 4.34 | > 10 | > 10 | 4.15 | 7.91 | > 10 | 7.37 | > 10 | > 10 | > 10 | 6.58 | 6.92 | 4.57 | 8.85 | > 10 | > 10 | 8.78
CNCCCNC(=S)Cn1cc(C)c(=O)[nH]c1=O | > 86.7 | > 100 | > 71.7 | > 81.8 | > 100 | > 31.6 | > 74.4 | > 54.3 | > 100 | > 100 | > 63.5 | > 92.5 | > 100 | > 95.5 | > 100 | > 100 | > 67.3 | > 74.3 | > 78.8 | > 100
C=C1C(=O)O[C@H]2C1C[C@@H](O)/C(C)=C/CC[C@@]1(C)O[C@H]21 (stereo not given in full) | > 49.6 | 21.5 | 22.3 | 31.9 | > 57 | 23.7 | > 54.8 | > 100 | 25.8 | > 49.3 | > 54.2 | 35 | 58.8 | 26.5 | > 96.4 | 22.9 | > 68.5 | 37.7 | > 100 | 15.1
CC(=O)c1c(SCCN2CCOCC2)n(-c2ccccc2)c(=S)n(-c2ccccc2)c1=O | 27.1 | 29.3 | > 62.9 | > 64.5 | 52.9 | 33.6 | 39.4 | > 100 | > 29.4 | 32 | 29.5 | 5.31 | 48.6 | 25.7 | > 73.4 | 30.5 | 60.7 | 30.1 | > 54.8 | 48.4
CCCN(CCC)C(=S)N/N=C(/C)c1ccccc1O | > 100 | 14.9 | > 36.9 | > 68.2 | > 100 | > 100 | 60.9 | > 100 | > 57.7 | > 100 | 15.1 | > 43.6 | > 93.2 | > 87.1 | > 41 | > 76.8 | 13.3 | > 51.9 | > 100 | 25.5
Cc1cc(S(=O)(=O)Nc2nnc3c4ccccc4cnn23)c(S)cc1Cl | > 100 | > 100 | > 100 | > 100 | > 100 | > 100 | > 100 | > 100 | > 100 | > 100 | > 100 | > 100 | > 100 | > 100 | > 69.3 | > 100 | > 85.1 | > 100 | > 100 | > 100
O/N=C1\CC2(N3CCOCC3)CCC1(c1ccccc1)CC2 | > 100 | > 100 | > 100 | > 100 | > 100 | > 100 | > 100 | > 100 | > 100 | > 100 | > 100 | > 100 | > 100 | > 100 | > 100 | > 100 | > 100 | > 100 | > 100 | > 100
CCC(=O)NI1OC(=O)c2ccccc21 | > 100 | > 100 | > 100 | > 100 | > 100 | > 100 | > 100 | > 100 | > 100 | > 100 | > 100 | > 100 | > 100 | > 100 | > 100 | > 100 | > 100 | > 100 | > 100 | 48.8
